Target: T1, vitamin D receptor (VDR) (Bos taurus, UniProt Q28037)
T1 construct: vitamin D receptor (VDR) derived from calf thymus was evaluated; purchased Yamasa Shoyu Co., Ltd. (Choshi, Chiba, Japan) Lot; No. 111931; host or cells: calf thymus (tissue preparation)
T1 sequence (Q28037 1-426): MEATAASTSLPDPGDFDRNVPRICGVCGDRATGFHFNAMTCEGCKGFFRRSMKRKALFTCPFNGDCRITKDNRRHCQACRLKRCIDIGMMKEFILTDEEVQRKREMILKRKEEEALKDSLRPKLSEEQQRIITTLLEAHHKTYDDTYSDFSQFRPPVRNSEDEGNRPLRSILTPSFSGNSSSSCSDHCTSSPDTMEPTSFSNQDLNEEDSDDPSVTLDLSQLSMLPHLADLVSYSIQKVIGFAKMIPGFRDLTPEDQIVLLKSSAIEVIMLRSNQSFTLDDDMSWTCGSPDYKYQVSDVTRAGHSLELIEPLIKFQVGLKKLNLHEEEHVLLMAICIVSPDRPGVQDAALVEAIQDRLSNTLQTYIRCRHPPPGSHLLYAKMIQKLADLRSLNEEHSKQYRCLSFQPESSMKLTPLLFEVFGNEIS
Experiment: Binding assay for calf thymus vitamin D receptor (VDR)
Conditions: relative to 1α,25-dihydroxyvitamin D3 = 1; ratio of concentrations for 50% inhibition of [3H]-1α,25-dihydroxyvitamin D3 binding to calf thymus VDR
Protocol: Binding Assay for Calf Thymus Vitamin D Receptor (VDR)
The binding ability of the compounds of the present inventions described in the above Examples to vitamin D receptor (VDR) derived from calf thymus was evaluated.
The binding assay was carried out according to the manufacturer's instruction of Yamasa Shoyu Co., Ltd. as follows.
An EtOH solution (sample) containing an increasing amount of each 1α,25-dihydroxyvitamin D3 (as a standard reference material), and Compounds YI-1a, YI-1b, YI-2a, YI-3a, YI-3b, YI-4a, YI-4b, YI-5a, YI-5b, 20-Epi-YI-1a, 20-Epi-YI-1b, 20-Epi-YI-2a, 20-Epi-YI-3a, 20-Epi-YI-4a, 20-Epi-YI-4b, 20-Epi-YI-5a, 20-Epi-YI-5b, 20-Epi-YI-6a, 20-Epi-YI-6b, 20-Epi-YI-7a, 20-Epi-YI-7b, 20-Epi-YI-8a, and 20-Epi-YI-8b was prepared, that is, dilution series were prepared wherein final concentrations of each compounds in a mixture, which is prepared by following step, of receptor solutions, samples, and [^3H]-1α,25-dihydroxyvitamin D3 solutions are 100 nM, 30 nM 10 nM, 1 nM, 300 pM, 100 pM, 30 pM, 10 pM, 3 pM, and 1 pM.
Freeze-dried calf thymus vitamin D receptors (Lot. No. 111931) were purchased from Yamasa Shoyu Co., Ltd. (Choshi, Chiba, Japan) and were dissolved in 45 mL of phosphate buffer (0.3 M KCl, 0.05 M K2HPO4—KH2PO4, pH 7.4) just before use to use as a receptor solution.
50 μL of sample of Compounds YI-1a, YI-1b, YI-2a, YI-3a, YI-3b, YI-4a, YI-4b, YI-5a, YI-5b, 20-Epi-YI-1a, 20-Epi-YI-1b, 20-Epi-YI-2a, 20-Epi-YI-3a, 20-Epi-YI-4a, 20-Epi-YI-4b, 20-Epi-YI-5a, 20-Epi-YI-5b, 20-Epi-YI-6a, 20-Epi-YI-6b, 20-Epi-YI-7a, 20-EPi-YI-7b, 20-Epi-YI-8a, 20-Epi-YI-8b, or 1α,25-dihydroxyvitamin D3 and 500 μL of the receptor solution were pipetted into glass culture tubes. The mixture was vortexed 2-3 times, and incubated for 1 h at room temperature. To each tubes, [^3H]-1α,25-dihydroxyvitamin D3 (ca. 10000 dpm) in 50 μL of EtOH was added, the mixture was vortexed 2-3 times, and the whole mixture was incubated for 18 h at 4° C. (in a refrigerator). Then, 200 μL of DCC (dextran-coated charcoal; purchased from Yamasa Shoyu) was added to each tubes, and allowed to stand for 30 min at 4° C. Bound and free [^3]-1α,25-dihydroxyvitamin D3 were separated by centrifugation at 3000 rpm for 15 min at 4° C. Aliquots (500 μL) of the supernatant were put into vial bottles from each tube, and were mixed with 10 mL of ACS-II fluid scintillator (Amersham, Buckinghamshire, U.K.) and submitted for radioactivity counting.
The relative binding affinity of the vitamin D derivatives of the present inventions to VDR was calculated regarding binding affinity of 1α,25-dihydroxyvitamin D3 to VDR as 1. The following equation was used to calculate the relative VDR binding affinity: X=y/x
X: the relative binding affinity of the compound of the present inventions to VDR
y: the concentration of 1α,25-dihydroxyvitamin D3 required for 50% inhibition of binding [^3H]-1α,25-dihydroxyvitamin D3 to VDR
x: the concentration of the compound of the present inventions required for 50% inhibition of binding [^3H]-1α,25-dihydroxyvitamin D3 to VDR

Row | VDR affinity (relative binding affinity X=y/x) | SMILES
1 | 1 | C[C@@H](CCCC(C)(C)O)C1CCC2/C(=C/C=C3C[C@@H](O)C(OCCO)[C@H](O)C3)CCCC21C (single isomer, unassigned) [Compound 20-Epi-YI-6a]
2 | 5 | C[C@@H](CCCC(C)(C)O)C1CCC2/C(=C/C=C3C[C@@H](O)C(OCCO)[C@H](O)C3)CCCC21C (single isomer, unassigned) [Compound 20-Epi-YI-6b]
3 | 1/2 | C[C@@H](CCCC(C)(C)O)C1CCC2/C(=C/C=C3C[C@@H](O)C4(CO4)[C@H](O)C3)CCCC21C (stereo partly drawn) [Compound 20-Epi-YI-1a, (20S)-1α,25-dihydroxy-2β,2′-epoxy-19-norvitamin D3]
4 | 1/5 | C[C@@H](CCCC(C)(C)O)C1CCC2/C(=C/C=C3C[C@@H](O)C4(CO4)[C@H](O)C3)CCCC21C (stereo partly drawn) [Compound 20-Epi-YI-1b, (20S)-1α,25-dihydroxy-2α,2′-epoxy-19-norvitamin D3]
5 | 2 | C[C@@H](CCCC(C)(C)O)C1CCC2/C(=C/C=C3C[C@@H](O)C(O)(CF)[C@H](O)C3)CCCC21C (stereo partly drawn) [Compound 20-Epi-YI-2a, (20S)-1α,2β,25-trihydroxy-2α-fluoromethyl-19-norvitamin D3]
6 | 1 | C[C@@H](CCCC(C)(C)O)C1CCC2/C(=C/C=C3C[C@@H](O)C(C)(O)[C@H](O)C3)CCCC21C (stereo partly drawn) [Compound 20-Epi-YI-3a, (20S)-1α,2β,25-trihydroxy-2α-methyl-19-norvitamin D3]
7 | 1/20 | CCC1(O)[C@H](O)CC(=C/C=C2\CCCC3(C)C2CCC3[C@@H](C)CCCC(C)(C)O)C[C@H]1O (stereo partly drawn) [Compound 20-Epi-YI-4a, (20S)-1α,2β,25-trihydroxy-2α-ethyl-19-norvitamin D3]
8 | 1/1000 | CCC1(O)[C@H](O)CC(=C/C=C2\CCCC3(C)C2CCC3[C@@H](C)CCCC(C)(C)O)C[C@H]1O (stereo partly drawn) [Compound 20-Epi-YI-4b, (20S)-1α,2α,25-trihydroxy-2β-ethyl-19-norvitamin D3]
9 | 1/5 | COCC1(O)[C@H](O)CC(=C/C=C2\CCCC3(C)C2CCC3[C@@H](C)CCCC(C)(C)O)C[C@H]1O (stereo partly drawn) [Compound 20-Epi-YI-5a, (20S)-1α,2β,25-trihydroxy-2α-methoxymethyl-19-norvitamin D3]
10 | 1/10 | COCC1(O)[C@H](O)CC(=C/C=C2\CCCC3(C)C2CCC3[C@@H](C)CCCC(C)(C)O)C[C@H]1O (stereo partly drawn) [Compound 20-Epi-YI-5b, (20S)-1α,2α,25-trihydroxy-2β-methoxymethyl-19-norvitamin D3]
11 | 1 | C[C@@H](CCCC(C)(C)O)C1CCC2/C(=C/C=C3C[C@@H](O)C(CCO)[C@H](O)C3)CCCC21C (stereo partly drawn) [Compound 20-Epi-YI-7a]
12 | 1/5 | C[C@@H](CCCC(C)(C)O)C1CCC2/C(=C/C=C3C[C@@H](O)C(CCO)[C@H](O)C3)CCCC21C (stereo partly drawn) [Compound 20-Epi-YI-7b]
13 | 1.6 | C[C@@H](CCCC(C)(C)O)C1CCC2/C(=C/C=C3C[C@@H](O)C(=CCO)[C@H](O)C3)CCCC21C (stereo partly drawn) [Compound 20-Epi-YI-8a]
14 | 1/50 | C[C@@H](CCCC(C)(C)O)C1CCC2/C(=C/C=C3C[C@@H](O)C(=CCO)[C@H](O)C3)CCCC21C (stereo partly drawn) [Compound 20-Epi-YI-8b, (20S)-1α,25-dihydroxy-2-[2-(hydroxyl)-ethylidene]-19-norvitamin D3]
15 | 1/23 | C[C@H](CCCC(C)(C)O)C1CCC2/C(=C/C=C3C[C@@H](O)C4(CO4)[C@H](O)C3)CCCC21C (stereo partly drawn) [YI-1a, 1α,25-dihydroxy-2β,2′-epoxy-19-norvitamin D3]
16 | 1/290 | C[C@H](CCCC(C)(C)O)C1CCC2/C(=C/C=C3C[C@@H](O)C4(CO4)[C@H](O)C3)CCCC21C (stereo partly drawn) [YI-1b, 1α,25-dihydroxy-2α,2′-epoxy-19-norvitamin D3]
17 | 1/43 | C[C@H](CCCC(C)(C)O)C1CCC2/C(=C/C=C3C[C@@H](O)C(O)(CF)[C@H](O)C3)CCCC21C (stereo partly drawn) [YI-2a, 1α,2β,25-trihydroxy-2α-fluoromethyl-19-norvitamin D3]
18 | 1/3 | C[C@H](CCCC(C)(C)O)C1CCC2/C(=C/C=C3C[C@@H](O)C(C)(O)[C@H](O)C3)CCCC21C (stereo partly drawn) [YI-3a, 1α,2β,25-trihydroxy-2α-methyl-19-norvitamin D3]
19 | 1/730 | C[C@H](CCCC(C)(C)O)C1CCC2/C(=C/C=C3C[C@@H](O)C(C)(O)[C@H](O)C3)CCCC21C (stereo partly drawn) [YI-3b, 1α,2α,25-trihydroxy-2β-methyl-19-norvitamin D3]
20 | 1/50 | CCC1(O)[C@H](O)CC(=C/C=C2\CCCC3(C)C2CCC3[C@H](C)CCCC(C)(C)O)C[C@H]1O (stereo partly drawn) [YI-4a, 1α,2β,25-trihydroxy-2α-ethyl-19-norvitamin D3]
21 | 1/2000 | CCC1(O)[C@H](O)CC(=C/C=C2\CCCC3(C)C2CCC3[C@H](C)CCCC(C)(C)O)C[C@H]1O (stereo partly drawn) [YI-4b, 1α,2α,25-trihydroxy-2β-ethyl-19-norvitamin D3]
22 | 1/26 | COCC1(O)[C@H](O)CC(=C/C=C2\CCCC3(C)C2CCC3[C@H](C)CCCC(C)(C)O)C[C@H]1O (stereo partly drawn) [YI-5a, 1α,2β,25-trihydroxy-2α-methoxymethyl-19-norvitamin D3]
23 | 1/820 | COCC1(O)[C@H](O)CC(=C/C=C2\CCCC3(C)C2CCC3[C@H](C)CCCC(C)(C)O)C[C@H]1O (stereo partly drawn) [YI-5b, 1α,2α,25-trihydroxy-2β-methoxymethyl-19-norvitamin D3]

Test system: cellular differentiation
Experiment: not given
Conditions: compared with 1,25-(OH)2D3; cited from earlier work

Row | SMILES | cellular effects
24 | C[C@H](CCCC(C)(C)O)[C@H]1CC[C@H]2/C(=C/C=C3C[C@@H](O)C[C@H](O)C3)CCC[C@]12C [19-nor-1,25-(OH)2D3, 19-nor-1α,25-dihydroxyvitamin D3] | equivalent to 1,25-(OH)2D3

From US7402688B2, “2,2-Di-substituted 1alpha,25-dihydroxy-19-norvitamin D derivative” (Wisconsin Alumni Research Foundation, priority 2002, dated 2008)
